Laboratory results: article PMC9501899 (Journal of the American Chemical Society, 2022)
Where two headings read alike, the source gives them in different places.

How the values were obtained:
[1] = target: T1, R1441C LRRK2 (Mus musculus, UniProt Q5S006, R1441C); assay: LRRK2 degradation in R1441C LRRK2 MEFs; format: cell-based; conditions: 4 h
T1 construct: endogenous in cells; host or cells: R1441C LRRK2 MEFs

[2] = target: T2, human LRRK2 (Homo sapiens, UniProt Q5S007); assay: LRRK2 degradation in peripheral blood mononuclear cells (PBMCs); format: cell-based
T2 construct: endogenous in cells; host or cells: human PBMCs from healthy donors
T2 sequence (Q5S007 whole entry): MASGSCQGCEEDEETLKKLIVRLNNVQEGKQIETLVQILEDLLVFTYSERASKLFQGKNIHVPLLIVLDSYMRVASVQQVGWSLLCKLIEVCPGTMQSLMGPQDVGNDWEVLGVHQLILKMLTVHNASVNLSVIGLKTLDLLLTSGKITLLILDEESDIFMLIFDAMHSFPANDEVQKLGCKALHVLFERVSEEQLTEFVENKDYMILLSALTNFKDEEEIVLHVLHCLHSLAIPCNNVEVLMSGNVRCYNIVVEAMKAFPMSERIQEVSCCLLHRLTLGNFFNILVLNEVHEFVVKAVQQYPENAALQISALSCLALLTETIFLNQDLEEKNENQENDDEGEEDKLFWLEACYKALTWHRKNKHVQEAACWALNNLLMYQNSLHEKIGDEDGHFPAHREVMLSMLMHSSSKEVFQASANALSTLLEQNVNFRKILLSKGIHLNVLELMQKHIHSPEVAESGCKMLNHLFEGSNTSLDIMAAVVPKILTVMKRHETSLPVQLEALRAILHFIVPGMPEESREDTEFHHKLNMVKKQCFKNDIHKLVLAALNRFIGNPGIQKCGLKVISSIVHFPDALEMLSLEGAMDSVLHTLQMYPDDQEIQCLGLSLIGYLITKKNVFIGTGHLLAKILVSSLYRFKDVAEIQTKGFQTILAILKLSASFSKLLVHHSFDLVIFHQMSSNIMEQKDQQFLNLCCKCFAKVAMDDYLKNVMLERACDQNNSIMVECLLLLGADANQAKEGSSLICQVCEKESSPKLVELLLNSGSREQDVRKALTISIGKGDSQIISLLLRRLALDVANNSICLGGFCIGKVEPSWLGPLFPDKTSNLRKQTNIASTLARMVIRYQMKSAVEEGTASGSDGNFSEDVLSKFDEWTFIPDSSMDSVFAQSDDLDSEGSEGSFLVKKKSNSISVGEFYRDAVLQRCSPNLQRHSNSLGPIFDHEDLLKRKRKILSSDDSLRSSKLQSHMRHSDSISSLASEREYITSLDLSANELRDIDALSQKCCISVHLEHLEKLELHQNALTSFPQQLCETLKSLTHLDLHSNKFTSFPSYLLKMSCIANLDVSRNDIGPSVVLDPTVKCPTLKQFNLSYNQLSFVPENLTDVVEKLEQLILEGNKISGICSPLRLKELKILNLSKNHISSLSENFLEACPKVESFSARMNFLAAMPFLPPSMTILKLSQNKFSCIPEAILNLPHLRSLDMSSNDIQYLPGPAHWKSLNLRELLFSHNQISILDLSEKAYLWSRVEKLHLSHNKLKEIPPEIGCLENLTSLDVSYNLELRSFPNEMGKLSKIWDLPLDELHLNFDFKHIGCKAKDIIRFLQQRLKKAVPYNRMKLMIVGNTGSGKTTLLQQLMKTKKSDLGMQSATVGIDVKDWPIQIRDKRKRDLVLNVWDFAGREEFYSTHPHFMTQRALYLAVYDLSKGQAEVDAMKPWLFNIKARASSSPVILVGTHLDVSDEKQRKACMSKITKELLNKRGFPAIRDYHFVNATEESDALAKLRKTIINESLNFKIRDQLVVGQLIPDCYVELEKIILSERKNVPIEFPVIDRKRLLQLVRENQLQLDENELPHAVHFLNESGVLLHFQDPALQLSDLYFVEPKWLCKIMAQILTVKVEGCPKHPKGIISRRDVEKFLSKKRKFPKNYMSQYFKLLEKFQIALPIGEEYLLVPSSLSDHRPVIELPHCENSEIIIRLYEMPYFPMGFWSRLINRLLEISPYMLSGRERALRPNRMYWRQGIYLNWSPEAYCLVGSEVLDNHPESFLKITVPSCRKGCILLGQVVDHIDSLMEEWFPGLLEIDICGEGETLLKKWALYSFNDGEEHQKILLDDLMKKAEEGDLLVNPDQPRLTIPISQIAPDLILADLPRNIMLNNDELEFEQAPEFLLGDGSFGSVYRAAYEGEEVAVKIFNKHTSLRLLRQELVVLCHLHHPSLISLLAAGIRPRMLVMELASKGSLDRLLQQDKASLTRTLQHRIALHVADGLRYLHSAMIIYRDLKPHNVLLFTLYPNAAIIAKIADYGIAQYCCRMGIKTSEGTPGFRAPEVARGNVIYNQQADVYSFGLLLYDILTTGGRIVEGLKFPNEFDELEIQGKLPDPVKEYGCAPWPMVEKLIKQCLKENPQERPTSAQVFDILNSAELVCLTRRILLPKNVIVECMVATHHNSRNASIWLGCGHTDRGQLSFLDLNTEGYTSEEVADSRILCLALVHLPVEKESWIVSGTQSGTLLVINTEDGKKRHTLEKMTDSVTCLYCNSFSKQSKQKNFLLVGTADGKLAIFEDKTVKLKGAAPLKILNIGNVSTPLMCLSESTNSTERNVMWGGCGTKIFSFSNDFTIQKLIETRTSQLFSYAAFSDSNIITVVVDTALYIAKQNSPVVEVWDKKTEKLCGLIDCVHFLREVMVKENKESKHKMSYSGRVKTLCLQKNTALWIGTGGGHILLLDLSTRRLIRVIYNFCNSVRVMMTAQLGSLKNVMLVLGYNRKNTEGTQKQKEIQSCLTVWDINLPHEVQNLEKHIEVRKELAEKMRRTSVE
From the text: The relative LRRK2 protein and pRab10 levels were obtained by quantifying the ratios of total LRRK2/GAPDH or Rab10-pThr73/total Rab10, respectively, and the ratios were normalized to the DMSO-treated samples. The relative LRRK2 and pRab10 protein levels were plotted against the compound concentration and fitted against “nonlinear regression, one site-fit log IC50” in GraphPad to obtain the DC50 and EC50 values. Data points are presented as mean ± standard error of the mean (SEM) from three biological independent replicates. […] The relative LRRK2 protein and pRab10 levels were obtained by quantifying the ratios of total LRRK2/ GAPDH or Rab10-pThr73/total Rab10, respectively, and the ratios were normalized to the DMSO-treated samples. The relative LRRK2 and pRab10 protein levels were plotted against the treatment time and were fitted against “nonlinear regression, one-phase decay” in GraphPad to obtain the half-life (T1/2) values. Data points are presented as mean ± SEM from three biological independent replicates. […] The relative LRRK2 levels were obtained by quantifying the ratios of total LRRK2/tubulin and normalized to the DMSO-treated samples. The relative LRRK2 levels were plotted against the compound concentration and fitted against “nonlinear regression, one site-fit log IC50” in GraphPad to obtain the DC50 values.
PBMC cells were separated from human blood from healthy volunteer donors following the existing protocol[82] and pelleted by centrifugation at 1000g for 2 min. The supernatant was discarded, and the PBMC pellet was resuspended in PBS containing 2% FBS for washing. The suspension was centrifuged at 1000g for 2 min again, and the PBMC pellet was resuspended in Roswell Park Memorial Institute (RPMI)-1640 (Gibco) media supplemented with 10% FBS. The cells were then seeded into six-well plates and treated with testing compounds at indicated concentrations and time periods. After treatment, the cells were collected into a 2 mL Eppendorf tube and centrifuged at 500g for 2 min to pellet the cells, the supernatant was discarded, and the pellet was resuspended in 1 mL PBS and centrifuged at 500g for 2 min again. The PBMC pellet was lysed with 60 μL of lysis buffer containing 50 mM tris–HCl, pH 7.5, 1% (v/v) Triton X-100, 1 mM ethylene glycol-bis(β-aminoethyl ether)-N,N,N′,N′-tetraacetic acid (EGTA), 1 mM sodium orthovanadate, 50 mM NaF, 0.1% (v/v) 2-mercaptoethanol, 10 mM 2-glycerophosphate, 5 mM sodium pyrophosphate, 0.1 μg/mL microcystin-LR (Enzo Life Sciences), 270 mM sucrose, and 0.5 mM diisopropyl fluorophosphate (DIFP) (Sigma-Aldrich, Cat# D0879) in addition to a complete EDTA-free protease inhibitor cocktail (Sigma-Aldrich Cat # 11836170001). DIFP is highly toxic and must be prepared in a fume hood to a stock solution of 0.5 M in isopropanol. The lysed cells were then centrifuged at 1500g for 15 min at 0 °C. The supernatants were collected for analysis by quantitative immunoblotting. For long-term storage, the supernatant was flash-frozen and stored at −80 °C. Protein concentrations of cell lysates were determined using the Pierce BCA Protein Assay Kit (Thermo Fisher).
Cell lysates containing a quarter of a volume of 4× NuPAGE LDS sample buffer (NP0007) supplemented with 5% β-mercaptoethanol were heated at 95 °C for 5 min. Samples (15–20 μg) were loaded onto precast 4–12% bis–tris midi 20W or 26W gels (Thermo Fisher Scientific, Cat# WG1402BOX or WG1403BOX) and resolved at 130 V for 2 h with a NuPAGE MOPS SDS running buffer (Thermo Fisher Scientific Cat# NP0001-02). Proteins were electrophoretically transferred onto a 0.45 μm nitrocellulose membrane (GE Healthcare, Amersham Protran Supported […] NC) at 90 V for 90 min on ice in a transfer buffer (48 mM tris base and 39 mM glycine supplemented with 20% methanol).

[3] = system: mito-QC MEFs; assay: Mitophagy in mito-QC MEFs; format: cell-based, mouse; conditions: 24 h treatment
From the text: Mitochondrial dysfunction is one of the pathophysiological hallmarks of PD[73] and can be rescued by mitophagy, a quality control mechanism whereby damaged or unnecessary mitochondria are delivered to lysosomes for degradation through membrane trafficking.[8] It has been shown that increasing mitophagy with inducer agents has the potential as a PD therapy.[74] Previous studies have shown that the LRRK2 kinase activity impairs basal mitophagy and that LRRK2 knockout or pharmacological inhibition of LRRK2 with kinase inhibitors was able to rescue the mitophagy level.[8]
Data are represented as mean ± SEM from three to five independent experiments.
Immortalized mito-QC MEFs[8],[93] were maintained in DMEM (Gibco, 11960–044) supplemented with 10% FBS, 2 mM L-glutamine (Gibco, 2503-081), 1% Na-pyruvate (Gibco, 11360-070), 1% nonessential amino acids (Gibco, 11140–035), and 1% antibiotics (penicillin/streptomycin, 100 U/mL penicillin and 100 μg/mL streptomycin; Gibco) at 37 °C under a humidified 5% CO2 atmosphere. […] Quantification of red-only dots was semiautomatized using the mito-QC counter plugin on FIJI, as previously described,[8],[94] using the following parameters: radius for smoothing images = 2, ratio threshold = 1.5, and red channel threshold = mean + 1 SD. […]

T1 sequence (Q5S006 whole entry R1441C): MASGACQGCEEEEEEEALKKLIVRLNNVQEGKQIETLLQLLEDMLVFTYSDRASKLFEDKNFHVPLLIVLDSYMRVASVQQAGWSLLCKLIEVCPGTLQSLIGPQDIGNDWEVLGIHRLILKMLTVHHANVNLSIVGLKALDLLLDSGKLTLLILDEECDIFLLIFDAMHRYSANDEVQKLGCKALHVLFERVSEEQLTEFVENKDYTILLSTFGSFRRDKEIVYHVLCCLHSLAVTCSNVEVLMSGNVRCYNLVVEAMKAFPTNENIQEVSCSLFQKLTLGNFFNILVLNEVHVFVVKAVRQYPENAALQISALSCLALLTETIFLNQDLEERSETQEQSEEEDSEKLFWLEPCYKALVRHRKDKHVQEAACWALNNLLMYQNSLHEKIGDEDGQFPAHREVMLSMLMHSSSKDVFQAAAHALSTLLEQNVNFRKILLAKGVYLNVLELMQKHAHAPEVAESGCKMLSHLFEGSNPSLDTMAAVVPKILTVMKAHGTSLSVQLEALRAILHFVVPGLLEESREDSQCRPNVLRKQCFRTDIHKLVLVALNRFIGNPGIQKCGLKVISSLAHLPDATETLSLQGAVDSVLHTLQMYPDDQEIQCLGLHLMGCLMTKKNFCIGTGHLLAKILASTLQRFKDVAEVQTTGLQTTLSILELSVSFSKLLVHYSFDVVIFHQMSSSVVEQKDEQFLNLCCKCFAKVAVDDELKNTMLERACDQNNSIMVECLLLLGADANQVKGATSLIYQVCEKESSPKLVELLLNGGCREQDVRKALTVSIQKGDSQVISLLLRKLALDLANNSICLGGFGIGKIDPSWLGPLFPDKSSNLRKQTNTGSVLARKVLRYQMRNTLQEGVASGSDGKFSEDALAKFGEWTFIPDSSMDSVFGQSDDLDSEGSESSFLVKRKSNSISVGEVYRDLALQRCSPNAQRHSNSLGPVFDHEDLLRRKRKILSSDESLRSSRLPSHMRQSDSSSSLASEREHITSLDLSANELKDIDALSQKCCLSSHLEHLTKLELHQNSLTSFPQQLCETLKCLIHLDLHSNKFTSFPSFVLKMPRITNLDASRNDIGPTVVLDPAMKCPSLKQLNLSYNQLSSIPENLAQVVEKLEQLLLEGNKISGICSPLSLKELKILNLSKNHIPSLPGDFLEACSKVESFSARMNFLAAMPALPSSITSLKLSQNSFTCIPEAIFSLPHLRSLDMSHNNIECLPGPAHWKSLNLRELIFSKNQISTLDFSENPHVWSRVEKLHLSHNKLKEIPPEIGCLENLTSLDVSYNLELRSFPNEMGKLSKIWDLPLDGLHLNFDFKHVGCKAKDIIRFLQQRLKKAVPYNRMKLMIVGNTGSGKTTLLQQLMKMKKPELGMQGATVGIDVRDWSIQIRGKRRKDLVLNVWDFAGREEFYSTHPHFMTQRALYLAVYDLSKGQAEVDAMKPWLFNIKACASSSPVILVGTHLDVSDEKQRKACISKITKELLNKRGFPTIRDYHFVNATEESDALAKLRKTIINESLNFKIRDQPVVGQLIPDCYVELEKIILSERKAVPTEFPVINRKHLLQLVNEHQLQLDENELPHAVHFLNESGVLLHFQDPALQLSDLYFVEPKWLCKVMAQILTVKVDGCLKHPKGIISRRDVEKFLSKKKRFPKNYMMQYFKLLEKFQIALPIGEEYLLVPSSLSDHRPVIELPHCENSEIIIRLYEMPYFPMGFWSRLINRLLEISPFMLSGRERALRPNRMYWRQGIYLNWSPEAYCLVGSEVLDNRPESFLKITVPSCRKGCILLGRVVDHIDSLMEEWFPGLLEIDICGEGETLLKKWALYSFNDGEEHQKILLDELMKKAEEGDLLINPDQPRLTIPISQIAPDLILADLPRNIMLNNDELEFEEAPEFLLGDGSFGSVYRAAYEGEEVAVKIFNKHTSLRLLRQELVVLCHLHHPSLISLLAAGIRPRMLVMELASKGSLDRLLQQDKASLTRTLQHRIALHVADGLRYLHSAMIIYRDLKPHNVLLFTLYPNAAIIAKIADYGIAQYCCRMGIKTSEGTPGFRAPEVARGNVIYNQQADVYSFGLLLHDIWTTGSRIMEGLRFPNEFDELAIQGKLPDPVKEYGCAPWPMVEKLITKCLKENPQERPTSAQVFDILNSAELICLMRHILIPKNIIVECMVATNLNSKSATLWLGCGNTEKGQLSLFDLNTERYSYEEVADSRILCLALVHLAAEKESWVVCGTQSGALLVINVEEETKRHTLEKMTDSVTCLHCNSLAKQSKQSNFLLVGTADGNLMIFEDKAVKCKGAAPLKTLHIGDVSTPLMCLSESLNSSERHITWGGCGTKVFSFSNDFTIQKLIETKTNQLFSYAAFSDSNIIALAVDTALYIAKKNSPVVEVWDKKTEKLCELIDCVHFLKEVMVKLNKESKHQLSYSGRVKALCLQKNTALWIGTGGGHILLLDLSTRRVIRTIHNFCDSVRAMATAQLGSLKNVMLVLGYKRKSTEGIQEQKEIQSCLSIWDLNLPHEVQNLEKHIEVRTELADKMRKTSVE

Row | SMILES | DC50s (LRRK2) [1] | DC50 ([2]; 4 h, read-out: DC50,4h (LRRK2)) [nM] | DC50 ([2]; 24 h, read-out: DC50,24h (LRRK2)) [nM] | mitophagy level (in words) [3] | Dmax (LRRK2) [1] | DC50,4h (LRRK2) ([2]; 4 h) | Dmax (LRRK2) ([2]; 4 h) | DC50,24h (LRRK2) ([2]; 24 h) | Dmax (LRRK2) ([2]; 24 h)
1 | CNc1nc(Nc2ccc(C(=O)N3CCN(C[C@H]4CC[C@H](CSC(C)(C)[C@H](NC(=O)C5(F)CC5)C(=O)N5C[C@H](O)CC5C(=O)NCc5ccc(-c6scnc6C)cc5)CC4)CC3)cc2OC)ncc1Cl (stereo partly drawn) [XL01126, (2S,4R)-1-((R)-3-((((1R,4R)-4-((4-(4-((5-Chloro-4-(methylamino)pyrimidin-2-yl)amino)-3-methoxybenzoyl)piperazin-1-yl)methyl)cyclohexyl)methyl)thio)-2-(1-fluorocyclopropane-1-carboxamido)-3-methylbutanoyl)-4-hydroxy-N-(4-(4-methylthiazol-5-yl)benzyl)pyrrolidine-2-carboxamide] | 15 nM (4 h) | 72 | 17 | induced the mitophagy level dose-dependently |  |  |  |  | 
2 | CNc1nc(Nc2ccc(C(=O)N3CCN(C[C@H]4CC[C@H](CSC(C)(C)[C@H](NC(=O)C5(F)CC5)C(=O)N5C[C@@H](O)C[C@H]5C(=O)NCc5ccc(-c6scnc6C)cc5)CC4)CC3)cc2OC)ncc1Cl [cis-XL01126, (2S,4S)-1-((R)-3-((((1R,4R)-4-((4-(4-((5-Chloro-4-(methylamino)pyrimidin-2-yl)amino)-3-methoxybenzoyl)piperazin-1-yl)methyl)cyclohexyl)methyl)thio)-2-(1-fluorocyclopropane-1-carboxamido)-3-methylbutanoyl)-4-hydroxy-N-(4-(4-methylthiazol-5-yl)benzyl)pyrrolidine-2-carboxamide] | NDO |  |  | induced the mitophagy level dose-dependently | NDO | NDO | NDO | NDO | NDO
